Test results taken from patent publication US9023850B2, “Nematocidal sulfonamides” (E I du Pont de Nemours and Company, priority 2010, dated 2015).

System: cucumber seedlings
Experiment: Test A: phytotoxicity to the cucumber seedlings of the test units
Assay type: in vivo
Details: 250 ppm active ingredient applied to soil, 7 days
Protocol: Control of the southern root-knot nematode (Meloidogyne incognita) through contact and/or systemic means was evaluated in test units consisting of small open containers filled with a sandy soil mixture and cucumber seedlings. Test compounds were formulated using a solution containing 50% acetone and 50% water. Test compounds were applied directly to the soil of the test units at a concentration of 250 ppm active ingredient. Each test was replicated 3 times. After treatment, the test units were allowed to dry for 1 hour, after which time about 250 second-stage juvenile (J2) larvae were pipetted into the soil. The test units were held at 27° C. and watered as needed for 7 days. Nematocidal efficacy was determined by the amount of root gall formation observed when compared to an untreated control. No gall formation was indicative of 100% nematode control. Gall formation equivalent to that found in the untreated control was indicative of 0% control. No nematode control rating was given to compounds showing significant phytotoxicity.

SMILES	phytotoxicity
COc1ccc(Cl)c(S(=O)(=O)NC(=O)c2cn3cc(C(F)(F)F)ncc3n2)c1 [Compound 1, N-[(2-chloro-5-methoxyphenyl)sulfonyl]-6-(trifluoromethyl)imidazo[1,2-a]pyrazine-2-carboxamide]	no significant phytotoxicity
O=C(NS(=O)(=O)c1cc(C(F)(F)F)ccc1Cl)c1cn2cc(Br)cnc2n1 [Compound 4, 6-bromo-N-[[2-chloro-5-(trifluoromethyl)phenyl]sulfonyl]imidazo[1,2-a]pyrimidine-2-carboxamide]	no significant phytotoxicity
O=C(NS(=O)(=O)c1cc(C(F)(F)F)ccc1Cl)c1cn2cc(C(F)(F)F)cnc2n1 [Compound 6, N-[[2-chloro-5-(trifluoromethyl)phenyl]sulfonyl]-6-(trifluoromethyl)imidazo[1,2-a]pyrimidine-2-carboxamide]	no significant phytotoxicity
